Assay results from paper PMC9516332 (Frontiers in Oncology, 2022).

Columns and labels:
Test in all cases: Kinase panel profiling at 1 µmol/L (MSA or IMAP), percentage inhibition
Format in all cases: biochemical
[1] = molecular target: panel of 255 wild-type kinases (Homo sapiens, UniProt P49674); settings: kinase CK1ε; 1 µmol/L single concentration; read-out: %-inhibition at 1 µmol/L, CK1ε
[2] = molecular target: panel of 255 wild-type kinases (Homo sapiens, UniProt Q9NQU5); settings: PAK6; 1 µmol/L single concentration; read-out: %-inhibition, PAK6
[3] = molecular target: T1, panel of 255 wild-type kinases (Homo sapiens, UniProt Q9NRA0); settings: kinase SPHK2; 1 µmol/L single concentration; read-out: %-inhibition at 1 µmol/L, SPHK2
T1 sequence (Q9NRA0 1-654): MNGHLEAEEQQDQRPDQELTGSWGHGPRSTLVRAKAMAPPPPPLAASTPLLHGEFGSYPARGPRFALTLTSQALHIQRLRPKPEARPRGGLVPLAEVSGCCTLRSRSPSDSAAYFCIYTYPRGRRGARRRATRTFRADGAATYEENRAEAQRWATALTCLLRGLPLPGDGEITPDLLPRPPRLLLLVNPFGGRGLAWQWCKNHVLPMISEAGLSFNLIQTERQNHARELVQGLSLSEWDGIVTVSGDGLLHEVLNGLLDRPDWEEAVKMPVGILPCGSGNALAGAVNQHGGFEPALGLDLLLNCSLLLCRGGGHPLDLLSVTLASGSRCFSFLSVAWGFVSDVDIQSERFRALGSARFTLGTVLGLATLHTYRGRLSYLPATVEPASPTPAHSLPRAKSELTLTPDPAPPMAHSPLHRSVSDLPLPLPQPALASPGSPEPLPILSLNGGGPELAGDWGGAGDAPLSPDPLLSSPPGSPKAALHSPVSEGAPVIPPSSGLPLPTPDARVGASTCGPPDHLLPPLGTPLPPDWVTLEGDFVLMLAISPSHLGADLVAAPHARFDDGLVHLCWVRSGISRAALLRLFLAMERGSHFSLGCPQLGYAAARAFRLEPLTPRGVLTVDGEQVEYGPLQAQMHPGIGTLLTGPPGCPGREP

[4] = molecular target: panel of 255 wild-type kinases (Homo sapiens, UniProt Q06187); settings: BTK kinase assay; 1 µmol/L single concentration; read-out: %-inhibition BTK
[5] = molecular target: panel of 255 wild-type kinases (Homo sapiens, UniProt P22455); settings: kinase FGFR4; 1 µmol/L single concentration; read-out: %-inhibition at 1 µmol/L, FGFR4
[6] = molecular target: panel of 255 wild-type kinases (Homo sapiens, UniProt Q15349); settings: kinase RSK3; 1 µmol/L single concentration; read-out: %-inhibition at 1 µmol/L, RSK3
[7] = molecular target: T2, panel of 255 wild-type kinases (Homo sapiens, UniProt Q14164); settings: kinase IKKε; 1 µmol/L single concentration; read-out: %-inhibition at 1 µmol/L, IKKε
T2 sequence (Q14164 1-716): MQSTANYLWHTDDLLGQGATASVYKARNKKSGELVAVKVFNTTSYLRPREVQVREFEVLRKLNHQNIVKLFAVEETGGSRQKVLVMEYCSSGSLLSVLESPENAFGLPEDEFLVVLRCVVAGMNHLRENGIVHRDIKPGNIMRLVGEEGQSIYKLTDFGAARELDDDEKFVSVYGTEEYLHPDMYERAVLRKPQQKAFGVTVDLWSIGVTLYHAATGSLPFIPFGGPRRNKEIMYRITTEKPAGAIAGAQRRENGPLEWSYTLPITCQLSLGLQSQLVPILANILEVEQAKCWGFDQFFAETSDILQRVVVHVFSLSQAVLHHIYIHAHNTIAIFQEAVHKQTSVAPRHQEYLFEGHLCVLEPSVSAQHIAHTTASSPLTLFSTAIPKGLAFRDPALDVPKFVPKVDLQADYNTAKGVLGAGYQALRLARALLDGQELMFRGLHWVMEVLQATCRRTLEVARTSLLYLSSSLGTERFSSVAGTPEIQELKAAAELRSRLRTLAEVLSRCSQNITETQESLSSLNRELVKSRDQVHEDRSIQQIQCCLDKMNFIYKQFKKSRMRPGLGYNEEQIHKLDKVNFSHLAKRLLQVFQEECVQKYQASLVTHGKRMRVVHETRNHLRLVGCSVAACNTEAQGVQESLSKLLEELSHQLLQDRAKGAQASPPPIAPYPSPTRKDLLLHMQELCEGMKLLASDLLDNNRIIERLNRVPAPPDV

[8] = molecular target: T3, panel of 255 wild-type kinases (Homo sapiens, UniProt Q9H093); settings: NuaK2; 1 µmol/L single concentration; read-out: %-inhibition, NuaK2
T3 sequence (Q9H093 1-628): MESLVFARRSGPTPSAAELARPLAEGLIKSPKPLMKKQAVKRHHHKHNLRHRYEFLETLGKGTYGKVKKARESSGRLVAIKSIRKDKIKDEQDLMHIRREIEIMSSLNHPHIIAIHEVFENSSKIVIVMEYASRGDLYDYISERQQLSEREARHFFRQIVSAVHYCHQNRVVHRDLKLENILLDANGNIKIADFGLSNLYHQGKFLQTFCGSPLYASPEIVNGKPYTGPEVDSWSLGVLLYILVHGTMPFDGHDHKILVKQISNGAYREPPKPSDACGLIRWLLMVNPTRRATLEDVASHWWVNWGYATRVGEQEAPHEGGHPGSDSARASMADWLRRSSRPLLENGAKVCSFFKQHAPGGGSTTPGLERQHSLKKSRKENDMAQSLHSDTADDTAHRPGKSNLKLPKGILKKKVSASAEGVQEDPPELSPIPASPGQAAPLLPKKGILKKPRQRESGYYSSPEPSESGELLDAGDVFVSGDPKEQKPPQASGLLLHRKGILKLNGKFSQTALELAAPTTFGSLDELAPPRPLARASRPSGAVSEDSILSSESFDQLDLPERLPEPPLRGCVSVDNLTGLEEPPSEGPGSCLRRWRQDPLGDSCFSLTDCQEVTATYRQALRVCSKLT

[9] = molecular target: panel of 255 wild-type kinases (Homo sapiens, UniProt Q13131); settings: AMPKα1/β1/γ1 kinase assay; 1 µmol/L single concentration; read-out: %-inhibition AMPKα1/β1/γ1
[10] = molecular target: panel of 255 wild-type kinases (Homo sapiens, UniProt Q9H1R3); settings: kinase skMLCK; 1 µmol/L single concentration; read-out: %-inhibition at 1 µmol/L, skMLCK

Row | inhibition at 1 µM [1] [%] | inhibition at 1 µM [2] [%] | inhibition at 1 µM [3] [%] | inhibition at 1 µM [4] [%] | inhibition at 1 µM [5] [%] | inhibition at 1 µM [6] [%] | inhibition at 1 µM [7] [%] | inhibition at 1 µM [8] [%] | inhibition at 1 µM [9] [%] | inhibition at 1 µM [10] [%] | SMILES
1 | -3 | 42 | -2.48 | 53 | 85 | 64 | -5 | 75 | 46 | 5 | CO[C@]1(C(=O)N[C@@H](C)c2ccc(-n3cc(F)cn3)nc2)CC[C@H](c2nc(C)cc(Nc3cc(C)[nH]n3)n2)CC1 [pralsetinib]
2 | 2.36 | 14 | -3.75 | 17 | 84 | 56 | 20 | 4 | 22 | -0.264 | COc1ccc(CN2C3CC2CN(c2ccc(-c4cc(OCC(C)(C)O)cn5ncc(C#N)c45)cn2)C3)cn1 [selpercatinib]
3 | -0.361 | 12 | -4 | 52 | 6.37 | 4.41 | -5.67 | 6 | -2.66 | 0.627 | Cn1cnc2c(F)c(Nc3ccc(Br)cc3Cl)c(C(=O)NOCCO)cc21 [selumetinib]
4 | 0.505 | 6.34 | 0.368 | 21 | 4 | 2.84 | -2.62 | 6.61 | -4 | -1.5 | Cc1cc(Nc2ncnc3ccc(NC4=NC(C)(C)CO4)cc23)ccc1Oc1ccn2ncnc2c1 [tucatinib]

Row | SMILES | inhibition at 1 µM [1] [%] | inhibition at 1 µM [2] [%] | inhibition at 1 µM [3] [%] | inhibition at 1 µM [4] [%] | inhibition at 1 µM [5] [%] | inhibition at 1 µM [6] [%] | inhibition at 1 µM [7] [%] | inhibition at 1 µM [8] [%] | inhibition at 1 µM [9] [%] | inhibition at 1 µM [10] [%]
5 | CCN1C(=O)N(c2c(F)c(OC)cc(OC)c2F)Cc2cnc3[nH]c(CN4CCOCC4)cc3c21 [pemigatinib] | 1.32 | 12 | -5.31 | -5.29 | 100 | -7.51 | 8.49 | 1.46 | -6.52 | 30
6 | FC(F)(F)c1ccc(CNc2ccc(Cc3c[nH]c4ncc(Cl)cc34)cn2)cn1 [pexidartinib] | 5.38 | 0.273 | 7 | -0.863 | 7.42 | 42 | -1.81 | 5 | -11 | 12
7 | CCn1c(=O)c(-c2cc(NC(=O)Nc3ccccc3)c(F)cc2Br)cc2cnc(NC)cc21 [ripretinib] | 1.8 | 1.15 | -10 | 4.22 | 11 | 12 | -5 | 1.36 | -10 | 69
